Reference: ChEMBL document CHEMBL3044534, “Antitumor and antileishmanial evaluation of novel heterocycles derived from quinazoline scaffold: a molecular modeling approach” (2013)
Values belong to the molecule of their own block, whether it stands above or below them.

How the values were obtained:
Type in all cases: functional
[1] = system: Leishmania donovani; assay: Antileishmanial activity against axenic amastigotes of Leishmania donovani assessed as growth inhibition at 50 uM; conditions: read-out: GI
[2] = system: SF-268; assay: Growth inhibition of Homo sapiens (human) SF268 cells after 48 hr by SRB assay; conditions: SF-268, 48 h
[3] = system: MCF7; assay: Growth inhibition of Homo sapiens (human) MCF7 cells after 48 hr by SRB assay; conditions: MCF7, 48 h
[4] = system: NCI-H460; assay: Growth inhibition of Homo sapiens (human) NCI-H460 cells after 48 hr by SRB assay; conditions: NCI-H460, 48 h
[5] = system: Leishmania donovani; assay: Antileishmanial activity against axenic amastigotes of Leishmania donovani assessed as growth inhibition
[6] = system: Leishmania donovani; assay: Antileishmanial activity against axenic amastigotes of Leishmania donovani assessed as growth inhibition at 1 uM; conditions: read-out: GI

SMILES: Cc1nc2ccccc2c(=O)n1NC(=O)CCl
- inhibition of growth at 50 µM [1]: 60%
- GI50 [2]: 18.4 µM
- GI50 [3]: 50.1 µM
- GI50 [4]: 23.2 µM

SMILES: Cc1nc2ccccc2c(=O)n1NC(=S)Nc1ccccc1
- inhibition of growth at 50 µM [1]: 98%
- GI50 [2]: 56.8 µM
- GI50 [3]: 64.9 µM
- GI50 [5]: 12 µM
- GI50 [4]: 78.6 µM

SMILES: Cc1nc2ccccc2c(=O)n1NC(=O)/C(Cl)=C/c1ccccc1
- inhibition of growth at 50 µM [1]: 80%
- GI50 [2]: 0.05 µM
- GI50 [3]: 0.03 µM
- GI50 [5]: 26 µM
- GI50 [4]: 0.02 µM

SMILES: COc1ccc(/C=C(\Cl)C(=O)Nn2c(C)nc3ccccc3c2=O)cc1
- inhibition of growth at 50 µM [1]: 84%
- GI50 [2]: 0.8 µM
- GI50 [3]: 0.9 µM
- GI50 [5]: 28 µM
- GI50 [4]: 0.6 µM

SMILES: Cc1nc2ccccc2c(=O)n1/N=C1\SCC(=O)N1c1ccccc1
- inhibition of growth at 50 µM [1]: 44%
- GI50 [2]: 38.4 µM
- GI50 [3]: 22 µM
- GI50 [5]: 12 µM
- GI50 [4]: 30.6 µM

SMILES: CCOC(=O)CNn1c(C)nc2ccccc2c1=O
- inhibition of growth at 50 µM [1]: 44%
- GI50 [2]: 26.8 µM
- GI50 [3]: 20.9 µM
- GI50 [5]: 10 µM
- GI50 [4]: 22.6 µM

SMILES: Cc1nc2ccccc2c(=O)n1NCC(=O)NN
- inhibition of growth at 50 µM [1]: 58%
- GI50 [2]: 16.7 µM
- GI50 [3]: 11.8 µM
- GI50 [5]: 22 µM
- GI50 [4]: 14.5 µM

SMILES: Cc1nc2ccccc2c(=O)n1NCC(=O)NNc1ccccc1
- inhibition of growth at 50 µM [1]: 22%
- GI50 [2]: 24.8 µM
- GI50 [3]: 22.6 µM
- GI50 [5]: 28 µM
- GI50 [4]: 12.9 µM

SMILES: Cc1nc2ccccc2c(=O)n1Nc1cc2ccccc2oc1=O
- inhibition of growth at 50 µM [1]: 70%
- GI50 [2]: 22.3 µM
- GI50 [3]: 32 µM
- GI50 [4]: 17.3 µM

SMILES: Cc1nc2ccccc2c(=O)n1NC(=O)c1cc2ccccc2o1
- inhibition of growth at 50 µM [1]: 28%
- GI50 [2]: 22.3 µM
- GI50 [3]: 10.9 µM
- GI50 [5]: 14 µM
- GI50 [4]: 12.1 µM

SMILES: C[C@@H]1[C@H](O)[C@@H](C)/C=C/C=C/C=C/C=C/C=C/C=C/C=C/[C@H](O[C@@H]2O[C@H](C)[C@@H](O)[C@H](N)[C@@H]2O)C[C@@H]2O[C@](O)(C[C@@H](O)C[C@@H](O)[C@H](O)CC[C@@H](O)C[C@@H](O)CC(=O)O[C@H]1C)C[C@H](O)[C@H]2C(=O)O [AMPHOTERICIN B]
- inhibition of growth at 1 µM [6]: 98%

SMILES: COc1cccc2c1C(=O)c1c(O)c3c(c(O)c1C2=O)C[C@@](O)(C(=O)CO)C[C@@H]3O[C@H]1C[C@H](N)[C@H](O)[C@H](C)O1 [DOXORUBICIN]
- GI50 [2]: 0.09 µM
- GI50 [3]: 0.04 µM
- GI50 [4]: 0.09 µM

Second part, led by results:

- GI50 [3]: 22.9 µM
- GI50 [4]: 43.6 µM
SMILES: Cc1nc2ccccc2c(=O)n1-n1c(C)cc(=O)n(-c2ccccc2)c1=S
- inhibition of growth at 50 µM [1]: 66%
- GI50 [2]: 36.8 µM
- GI50 [5]: 12 µM

- GI50 [3]: 70.6 µM
- GI50 [4]: 38.9 µM
SMILES: Cc1nc2ccccc2c(=O)n1NC(=O)/C(Cl)=C/c1ccc(Cl)cc1
- inhibition of growth at 50 µM [1]: 50%
- GI50 [2]: 50.8 µM
- GI50 [5]: 18 µM

- GI50 [3]: 40.6 µM
- GI50 [4]: 32.6 µM
SMILES: Cc1nc2ccccc2c(=O)n1NC1=CSC(=C(C#N)C#N)N1c1ccccc1
- inhibition of growth at 50 µM [1]: 44%
- GI50 [2]: 60.4 µM
- GI50 [5]: 18 µM

- GI50 [3]: 11.9 µM
- GI50 [4]: 14.1 µM
SMILES: Cc1nc2ccccc2c(=O)n1NC(=O)C1Nc2ccccc2C1=O (centres undefined)
- inhibition of growth at 50 µM [1]: 92%
- GI50 [2]: 20.3 µM
- GI50 [5]: 13 µM

- GI50 [3]: 0.7 µM
- GI50 [4]: 0.2 µM
SMILES: CC1=CC(C)N(c2ccccc2)C(=S)N1n1c(C)nc2ccccc2c1=O (centres undefined)
- inhibition of growth at 50 µM [1]: 48%
- GI50 [2]: 0.03 µM

- GI50 [3]: 36 µM
- GI50 [4]: 28 µM
SMILES: Cc1nc2ccccc2c(=O)n1/N=c1\scc(N)n1-c1ccccc1
- inhibition of growth at 50 µM [1]: 96%
- GI50 [2]: 22.5 µM
- GI50 [5]: 10 µM

- GI50 [3]: 20 µM
- GI50 [4]: 22 µM
SMILES: Cc1nc2ccccc2c(=O)n1NCc1nc2ccccc2[nH]1
- inhibition of growth at 50 µM [1]: 85%
- GI50 [2]: 31.5 µM

- GI50 [3]: 0.4 µM
- GI50 [4]: 0.1 µM
SMILES: CCOC(=O)c1c(N)cc(N)n1-n1c(C)nc2ccccc2c1=O
- inhibition of growth at 50 µM [1]: 40%
- GI50 [2]: 0.9 µM

- GI50 [3]: 13.1 µM
- GI50 [4]: 0.9 µM
SMILES: CCOC(=O)c1c(N)cc(O)n1-n1c(C)nc2ccccc2c1=O
- inhibition of growth at 50 µM [1]: 60%
- GI50 [2]: 11.5 µM
- GI50 [5]: 18 µM

- GI50 [3]: 0.01 µM
- GI50 [4]: 0.2 µM
SMILES: Cc1nc2ccccc2c(=O)n1Nc1csc(N)n1
- inhibition of growth at 50 µM [1]: 72%
- GI50 [2]: 0.4 µM
- GI50 [5]: 22 µM
